The values below come from patent publication US9085587B2, “Inhibitors of hepatitis C virus” (priority 2010, dated 2015).

Like-named read-outs stand apart in the source and are kept apart here.

The test system of the assay is HCV 1b replication (bicistronic genotype 1b replicon in Huh 7 cells). In words: HCV 1b replicon assay (1b_Huh-Luc/Neo-ET cell line, luciferase readout). Conditions: Hepatitis C virus. Format: cell-based. As for the experimental part:
Biological activity of the compounds of the invention was determined using an HCV replicon assay. The 1b_Huh-Luc/Neo-ET cell line persistently expressing a bicistronic genotype 1b replicon in Huh 7 cells was obtained from ReBLikon GMBH. This cell line was used to test compound inhibition using luciferase enzyme activity readout as a measurement of compound inhibition of replicon levels.
On Day 1 (the day after plating), each compound was added in triplicate to the cells. Plates were incubated for 72 hours prior to running the luciferase assay. Enzyme activity was measured using a Bright-Glo Kit (cat. number E2620) manufactured by Promega Corporation. The following equation was used to generate a percent control value for each compound. % Control=(Average Compound Value/Average Control)*100
The EC50 value was determined using GraphPad Prism and the following equation: Y=Bottom+(Top-Bottom)/(1+10^((Log IC50−X)*HillSlope))
EC50 values of compounds were repeated several times in the replicon assay.

[1] abbreviates: Huh-7, 1b_Huh-Luc/Neo-ET cell line, 72 hours, luciferase readout, read-out: EC50, concentration effective to produce a half-maximal inhibition of HCV 1b replication.
Where [2] appears, read: Huh-7, class symbols, genotype 1b replicon, read-out: Inhibition of HCV genotype 1b replicon.
Where [3] appears, read: Huh-7, numeric EC50, genotype 1b replicon, read-out: Inhibition of HCV genotype 1b replicon (EC50).

As for `CNC(=O)c1c(-c2ccc(F)cc2)oc2cc3c(cc12)[C@H](C)O[C@H](CO[C@H]1CCOC1)CN3S(C)(=O)=O` [Compound B285], the EC50 is not above 10 nM under setting [1] and less than 10 nM under setting [2].
`CNC(=O)c1c(-c2ccc(F)cc2)oc2cc3c(cc12)[C@H](C)O[C@H](COC[C@H]1COC(C)(C)O1)CN3S(C)(=O)=O` [Compound B275]: the EC50 under setting [1] was not above 10 nM and the EC50 under setting [2] is less than 10 nM.
For the compound `CNC(=O)c1c(-c2ccc(F)cc2)oc2cc3c(cc12)[C@H](C)O[C@H](COC(=O)[C@@H](N)[C@@H](C)O)CN3S(C)(=O)=O` [Compound B280], the EC50 is, setting by setting: under setting [1], not above 10 nM; under setting [2], less than 10 nM.
In the same order, the values of `CNC(=O)c1c(-c2ccc(F)cc2)oc2cc3c(cc12)[C@H](C)O[C@H](COP(=O)(O)O)CN3S(C)(=O)=O` [Compound B255] are not above 10 nM and less than 10 nM.
In the same order, the values of `CNC(=O)c1c(-c2ccc(F)cc2)oc2cc3c(cc12)[C@H](C)O[C@H](COC(=O)c1cccnc1)CN3S(C)(=O)=O` [Compound B263] are not above 10 nM and less than 10 nM.
Take `C=C1CCCN(S(C)(=O)=O)c2cc3oc(-c4ccc(F)cc4F)c(C(=O)NC)c3cc21` [Compound B29]: the EC50 under setting [1] was 10 to 100 nM and the EC50 under setting [3] was determined as 56.1 nM.
`CNC(=O)c1c(-c2ccc(Oc3ccc(F)cc3)cc2)oc2cc3c(cc12)[C@H](C)O[C@H](COC(=O)C(C)(C)C)CN3S(C)(=O)=O` [Compound B244]: the EC50 runs as follows: under setting [1], not above 10 nM; under setting [2], less than 10 nM.
The corresponding values for `CNC(=O)c1c(-c2ccc(F)cc2)oc2cc3c(cc12)[C@H](C)O[C@H](COC(=O)[C@@H](N)Cc1ccccc1)CN3S(C)(=O)=O` [Compound B278] are not above 10 nM and less than 10 nM.
In the same order, the values of `CNC(=O)c1c(-c2ccc(F)cc2F)oc2cc3c(cc12)C(CO)CCCN3S(C)(=O)=O` (stereo not drawn) [Compound B36] are 10 to 100 nM and 10 to 100 nM.
On to `CNC(=O)c1c(-c2ccc(F)cc2)oc2cc3c(cc12)[C@H](C)O[C@H](COC(=O)C1CCNCC1)CN3S(C)(=O)=O` [Compound 8265], for which the EC50 by setting is: (Huh-7, read-out: Inhibition of HCV genotype 1b replicon) less than 10 nM; under setting [1], not above 10 nM.
Regarding `CNC(=O)c1c(-c2ccc(F)cc2)oc2cc3c(cc12)C(O)CCCN3S(C)(=O)=O` (stereo not drawn) [Compound B8], under setting [3], the EC50 was 106 nM.
For `CNC(=O)c1c(-c2ccc(Oc3ccc(F)cc3)cc2)nn2cc3c(cc12)C(C)OC(CO)CN3S(C)(=O)=O` (stereo not drawn) [Compound B250], the EC50 under setting [2] was in the range of 10 to 100 nM.
For `CNC(=O)c1c(-c2ccc(F)cc2)oc2cc3c(cc12)[C@H](C)O[C@@H](CS(C)(=O)=O)CN3S(C)(=O)=O` [Compound B287], the EC50 under setting [1] lay in the range of 10 to 100 nM and the EC50 under setting [2] was in the range of 10 to 100 nM.
Consider `CNC(=O)c1c(-c2ccc(Oc3ccc(F)cc3)cc2)oc2cc3c(cc12)[C@H](C)O[C@H](COC(=O)CN)CN3S(C)(=O)=O` [Compound B254], for which the EC50 is, setting by setting: under setting [1], not above 10 nM; under setting [2], less than 10 nM.
With `CNC(=O)c1c(-c2ccc(F)cc2)oc2cc3c(cc12)[C@H](C)O[C@H](COC(=O)[C@@H](N)[C@@H](C)OC)CN3S(C)(=O)=O` [Compound B270], the EC50 by setting is: under setting [1], not above 10 nM; under setting [2], less than 10 nM.
In the case of `CNC(=O)c1c(-c2ccc(F)cc2)oc2cc3c(cc12)[C@H](C)O[C@H](COC(=O)COCCOCCOC)CN3S(C)(=O)=O` [Compound B256], the EC50 was not above 10 nM under setting [1] and less than 10 nM under setting [2].
In the case of `CN/C(=N\OC)c1c(-c2ccc(F)cc2)oc2cc3c(cc12)[C@H](C)O[C@H](CS(C)(=O)=O)CN3S(C)(=O)=O` [Compound B284], the EC50 under setting [2] lay in the range of 100 to 1000 nM.
Consider `CNC(=O)c1c(-c2ccc(F)cc2)oc2cc3c(cc12)C(C)=CCCN3S(C)(=O)=O` [Compound B6], for which the EC50 under setting [1] was 10 to 100 nM and the EC50 under setting [2] was 10 to 100 nM.
`CNC(=O)c1c(-c2ccc(F)cc2)oc2cc3c(cc12)[C@H](C)O[C@H](COC(=O)COCCOCCOCCOCCOC)CN3S(C)(=O)=O` [Compound B259]: the EC50 was not above 10 nM under setting [1] and less than 10 nM under setting [2].
As for `CNC(=O)c1c(-c2ccccc2F)oc2cc3c(cc12)C(C)CCCN3S(C)(=O)=O` (stereo not drawn) [Compound B33], the EC50 reads like this: under setting [1], not above 10 nM; under setting [2], less than 10 nM.
The corresponding values for `CNC(=O)c1c(-c2ccc(F)cc2)oc2cc3c(cc12)[C@H](C)O[C@H](COC)CN3S(C)(=O)=O` [Compound B260] are not above 10 nM and less than 10 nM.
The corresponding values for `CNC(=O)c1c(-c2ccc(F)cc2)oc2cc3c(cc12)[C@H](C)O[C@H](COCCOC)CN3S(C)(=O)=O` [Compound B267] are not above 10 nM and less than 10 nM.
In the same order, the values of `CNC(=O)c1c(-c2ccc(F)cc2)oc2cc3c(cc12)[C@H](C)O[C@H](COC(=O)CN)CN3S(C)(=O)=O` [Compound B253] are not above 10 nM and less than 10 nM.
With `CNC(=O)c1c(-c2ccc(F)cc2)oc2cc3c(cc12)[C@H](C)O[C@H](COC[C@H](O)CO)CN3S(C)(=O)=O` [Compound B279], the EC50 lay in the range of 10 to 100 nM under setting [1] and 10 to 100 nM under setting [2].
As to `CONC(=O)c1c(-c2ccc(F)cc2)oc2cc3c(cc12)CCCCN3S(C)(=O)=O` [Compound B18], the EC50 by setting is: under setting [1], 10 to 100 nM; under setting [2], 10 to 100 nM.
`CNC(=O)c1c(-c2ccc(F)cc2)oc2cc3c(cc12)[C@H](C)O[C@H](COC(=O)[C@@H](N)C(C)C)CN3S(C)(=O)=O` [Compound B248]: the EC50 is not above 10 nM under setting [1] and less than 10 nM under setting [2].
The corresponding values for `CNC(=O)c1c(-c2ccc(F)cc2)oc2cc3c(cc12)[C@H](C)O[C@H](COC(=O)C(C)(C)C)CN3S(C)(=O)=O` [Compound B261] are not above 10 nM and less than 10 nM.
In the case of `CNC(=O)c1c(-c2ccc(F)cc2)oc2cc3c(cc12)[C@H](C)O[C@H](COC(=O)N1CCC(N2CCCCC2)CC1)CN3S(C)(=O)=O` [Compound B276], the EC50 was not above 10 nM under setting [1] and less than 10 nM under setting [2].
With `CNC(=O)c1c(-c2ccc(F)cc2)oc2cc3c(cc12)C(=O)CCCN3S(C)(=O)=O` [Compound B7], the EC50 was 10 to 100 nM under setting [1] and 10 to 100 nM under setting [2].
For the compound `CONC(=O)c1c(-c2ccc(F)cc2)oc2cc3c(cc12)[C@H](C)O[C@H](CO)CN3S(C)(=O)=O` [Compound B257], the EC50 under setting [1] was not above 10 nM and the EC50 under setting [2] is less than 10 nM.
On to `CNC(=O)c1c(-c2ccc(F)cc2F)oc2cc3c(cc12)C(C)=CCCN3S(C)(=O)=O` [Compound B34], for which the EC50 under setting [1] was 10 to 100 nM and the EC50 under setting [2] was in the range of 10 to 100 nM.
Consider `CNC(=O)c1c(-c2ccc(F)cc2)oc2cc3c(cc12)[C@H](C)O[C@H](COCCOCCOC)CN3S(C)(=O)=O` [Compound B268], for which the EC50 under setting [1] is not above 10 nM and the EC50 under setting [2] was less than 10 nM.
For the compound `CNC(=O)c1c(-c2ccc(F)cc2)oc2cc3c(cc12)[C@H](C)O[C@H](COC(=O)CCC(=O)O)CN3S(C)(=O)=O` [Compound B262], the EC50 by setting is: under setting [1], 10 to 100 nM; under setting [2], 10 to 100 nM.
In the case of `CNC(=O)c1c(-c2ccc(F)cc2)oc2cc3c(cc12)[C@H](C)O[C@H](COC(=O)[C@@H](N)c1ccccc1)CN3S(C)(=O)=O` [Compound B272], the EC50 was not above 10 nM under setting [1] and less than 10 nM under setting [2].
On to `C=C1CCCN(S(C)(=O)=O)c2cc3oc(-c4ccc(F)cc4)c(C(=O)NC)c3cc21` [Compound B4], for which the EC50 reads like this: under setting [1], 10 to 100 nM; under setting [2], 10 to 100 nM.
On to `CNC(=O)c1c(-c2ccc(F)cc2)oc2cc3c(cc12)[C@H](C)O[C@H](CO[C@@H]1CCOC1)CN3S(C)(=O)=O` [Compound B286], for which the EC50 under setting [1] was not above 10 nM and the EC50 under setting [2] is less than 10 nM.
In the case of `CNC(=O)c1c(-c2ccc(F)cc2)oc2cc3c(cc12)[C@H](C)O[C@@H](CO)CN3S(C)(=O)=O` [Compound B274], the EC50 under setting [2] lay within 10 to 100 nM.
In the case of `CNC(=O)c1c(-c2ccc(F)cc2)oc2cc3c(cc12)[C@H](C)O[C@H](COC(=O)CC1CCNCC1)CN3S(C)(=O)=O` [Compound B264], the EC50 was 10 to 100 nM under setting [1] and 10 to 100 nM under setting [2].
Regarding `CC[C@H](C)[C@H](N)C(=O)OC[C@@H]1CN(S(C)(=O)=O)c2cc3oc(-c4ccc(F)cc4)c(C(=O)NC)c3cc2[C@H](C)O1` [Compound B269], the EC50 by setting is: under setting [1], not above 10 nM; under setting [2], less than 10 nM.
For the compound `CNC(=O)c1c(-c2ccc(Oc3ccc(F)cc3)cc2)oc2cc3c(cc12)[C@H](C)O[C@H](COC(=O)c1cccnc1)CN3S(C)(=O)=O` [Compound B246], the EC50 reads like this: under setting [1], not above 10 nM; under setting [2], less than 10 nM.
As for `CNC(=O)c1c(-c2ccc(F)cc2)oc2cc3c(cc12)C1(CCCN3S(C)(=O)=O)CC1` [Compound B9], the EC50 reads like this: under setting [1], 10 to 100 nM; under setting [2], 10 to 100 nM.
Take `CNC(=O)c1c(-c2ccc(F)cc2)oc2cc3c(cc12)[C@H](C)O[C@H](COC(=O)[C@@H](N)CC(C)C)CN3S(C)(=O)=O` [Compound B271]: the EC50 under setting [1] was not above 10 nM and the EC50 under setting [2] is less than 10 nM.
The corresponding values for `CNC(=O)c1c(-c2ccc(F)cc2)oc2cc3c(cc12)[C@H](C)O[C@H](COC(=O)[C@H](C)N)CN3S(C)(=O)=O` [Compound B249] are not above 10 nM and less than 10 nM.
Consider `CNC(=O)c1c(-c2ccc(Oc3ccc(F)cc3)cc2)oc2cc3c(cc12)[C@H](C)O[C@H](COC)CN3S(C)(=O)=O` [Compound B243], for which the EC50 by setting is: under setting [1], not above 10 nM; under setting [2], less than 10 nM.
